Like-named read-outs stand apart in the source and are kept apart here.
Experiments:
CAMKK1 = CAMKK1 (Homo sapiens (Human), UniProt Q8N5S9); assay: KINOMEscan scanMAX; assay type: binding; conditions: 2000 nM; read-out: Percent Control
PIK3C2B = PIK3C2B (Homo sapiens (Human), UniProt O00750); assay: KINOMEscan scanMAX; assay type: binding; conditions: 2000 nM; read-out: Percent Control
PIK3CA = PIK3CA (Homo sapiens (Human), UniProt P42336); assay: KINOMEscan scanMAX; assay type: binding; conditions: 2000 nM; read-out: Percent Control
PFTK1 (CDK14) = PFTK1 (CDK14) (Homo sapiens (Human), UniProt O94921); assay: KINOMEscan scanMAX; assay type: binding; conditions: 2000 nM; read-out: Percent Control
PIP5K2C (PIP4K2C) = PIP5K2C (PIP4K2C) (Homo sapiens (Human), UniProt Q8TBX8); assay: KINOMEscan scanMAX; assay type: binding; conditions: 2000 nM; read-out: Percent Control
BMX = BMX (Homo sapiens (Human), UniProt P51813); assay: KINOMEscan scanMAX; assay type: binding; conditions: 2000 nM; read-out: Percent Control
CDK4-cyclinD1 = CDK4-cyclinD1 (Homo sapiens (Human), UniProt P11802); assay: KINOMEscan scanMAX; assay type: binding; conditions: 2000 nM; read-out: Percent Control
MAP3K15 = MAP3K15 (Homo sapiens (Human), UniProt Q6ZN16); assay: KINOMEscan scanMAX; assay type: binding; conditions: 2000 nM; read-out: Percent Control
ULK2 = ULK2 (Homo sapiens (Human), UniProt Q8IYT8); assay: KINOMEscan scanMAX; assay type: binding; conditions: 2000 nM; read-out: Percent Control
EPHA5 = EPHA5 (Homo sapiens (Human), UniProt P54756); assay: KINOMEscan scanMAX; assay type: binding; conditions: 2000 nM; read-out: Percent Control
[1] = molecular target: ABL1(H396P)-phosphorylated (Homo sapiens (Human), UniProt P00519, H396P); assay: KINOMEscan scanMAX; assay type: binding; conditions: 2000 nM; read-out: Percent Control
TLK1 = TLK1 (Homo sapiens (Human), UniProt Q9UKI8); assay: KINOMEscan scanMAX; assay type: binding; conditions: 2000 nM; read-out: Percent Control
[2] = tested on: CDK8/19-mediated NFκB-driven transcription; assay: NFκB-dependent luciferase reporter assay in parental 293 reporter cells; assay type: cell-based, human; conditions: Homo sapiens
[3] = molecular target: PFCDPK1(P.falciparum) (CDPK1) (Plasmodium falciparum (isolate 3D7), UniProt P62344); assay: KINOMEscan scanMAX; assay type: binding; conditions: 2000 nM; read-out: Percent Control
[4] = molecular target: ABL1(Q252H)-nonphosphorylated (Homo sapiens (Human), UniProt P00519, Q252H); assay: KINOMEscan scanMAX; assay type: binding; conditions: 2000 nM; read-out: Percent Control
RIOK3 = RIOK3 (Homo sapiens (Human), UniProt O14730); assay: KINOMEscan scanMAX; assay type: binding; conditions: 2000 nM; read-out: Percent Control
JNK3 (MAPK10) = JNK3 (MAPK10) (Homo sapiens (Human), UniProt P53779); assay: KINOMEscan scanMAX; assay type: binding; conditions: 2000 nM; read-out: Percent Control
MEK1 (MAP2K1) = MEK1 (MAP2K1) (Homo sapiens (Human), UniProt Q02750); assay: KINOMEscan scanMAX; assay type: binding; conditions: 2000 nM; read-out: Percent Control
ULK1 = ULK1 (Homo sapiens (Human), UniProt O75385); assay: KINOMEscan scanMAX; assay type: binding; conditions: 2000 nM; read-out: Percent Control
CDK4-cyclinD3 = CDK4-cyclinD3 (Homo sapiens (Human), UniProt P11802); assay: KINOMEscan scanMAX; assay type: binding; conditions: 2000 nM; read-out: Percent Control
MST1 (STK4) = MST1 (STK4) (Homo sapiens (Human), UniProt Q13043); assay: KINOMEscan scanMAX; assay type: binding; conditions: 2000 nM; read-out: Percent Control
NIM1 (MGC42105) = NIM1 (MGC42105) (Homo sapiens (Human), UniProt Q8IY84); assay: KINOMEscan scanMAX; assay type: binding; conditions: 2000 nM; read-out: Percent Control
DYRK1B = DYRK1B (Homo sapiens (Human), UniProt Q9Y463); assay: KINOMEscan scanMAX; assay type: binding; conditions: 2000 nM; read-out: Percent Control
KIT(V559D, V654A) = KIT(V559D, V654A) (Homo sapiens (Human), UniProt P10721, V559D/V654A); assay: KINOMEscan scanMAX; assay type: binding; conditions: 2000 nM; read-out: Percent Control
PLK2 = PLK2 (Homo sapiens (Human), UniProt Q9NYY3); assay: KINOMEscan scanMAX; assay type: binding; conditions: 2000 nM; read-out: Percent Control
STK35 = STK35 (Homo sapiens (Human), UniProt Q8TDR2); assay: KINOMEscan scanMAX; assay type: binding; conditions: 2000 nM; read-out: Percent Control
ALK(C1156Y) = ALK(C1156Y) (Homo sapiens (Human), UniProt Q9UM73, C1156Y); assay: KINOMEscan scanMAX; assay type: binding; conditions: 2000 nM; read-out: Percent Control
CAMK1D = CAMK1D (Homo sapiens (Human), UniProt Q8IU85); assay: KINOMEscan scanMAX; assay type: binding; conditions: 2000 nM; read-out: Percent Control
KIT(A829P) = KIT(A829P) (Homo sapiens (Human), UniProt P10721, A829P); assay: KINOMEscan scanMAX; assay type: binding; conditions: 2000 nM; read-out: Percent Control
TIE1 = TIE1 (Homo sapiens (Human), UniProt P35590); assay: KINOMEscan scanMAX; assay type: binding; conditions: 2000 nM; read-out: Percent Control
ERBB4 = ERBB4 (Homo sapiens (Human), UniProt Q15303); assay: KINOMEscan scanMAX; assay type: binding; conditions: 2000 nM; read-out: Percent Control
WEE2 = WEE2 (Homo sapiens (Human), UniProt P0C1S8); assay: KINOMEscan scanMAX; assay type: binding; conditions: 2000 nM; read-out: Percent Control
CLK2 = CLK2 (Homo sapiens (Human), UniProt P49760); assay: KINOMEscan scanMAX; assay type: binding; conditions: 2000 nM; read-out: Percent Control
NEK10 = NEK10 (Homo sapiens (Human), UniProt Q6ZWH5); assay: KINOMEscan scanMAX; assay type: binding; conditions: 2000 nM; read-out: Percent Control
LRRK2(G2019S) = LRRK2(G2019S) (Homo sapiens (Human), UniProt Q5S007, G2019S); assay: KINOMEscan scanMAX; assay type: binding; conditions: 2000 nM; read-out: Percent Control
FLT3(N841I) = FLT3(N841I) (Homo sapiens (Human), UniProt P36888, N841I); assay: KINOMEscan scanMAX; assay type: binding; conditions: 2000 nM; read-out: Percent Control
TRKA (NTRK1) = TRKA (NTRK1) (Homo sapiens (Human), UniProt P04629); assay: KINOMEscan scanMAX; assay type: binding; conditions: 2000 nM; read-out: Percent Control
DDR1 = DDR1 (Homo sapiens (Human), UniProt Q08345); assay: KINOMEscan scanMAX; assay type: binding; conditions: 2000 nM; read-out: Percent Control
SBK1 = SBK1 (Homo sapiens (Human), UniProt Q52WX2); assay: KINOMEscan scanMAX; assay type: binding; conditions: 2000 nM; read-out: Percent Control

Chain of PIK3CA (P42336 whole entry): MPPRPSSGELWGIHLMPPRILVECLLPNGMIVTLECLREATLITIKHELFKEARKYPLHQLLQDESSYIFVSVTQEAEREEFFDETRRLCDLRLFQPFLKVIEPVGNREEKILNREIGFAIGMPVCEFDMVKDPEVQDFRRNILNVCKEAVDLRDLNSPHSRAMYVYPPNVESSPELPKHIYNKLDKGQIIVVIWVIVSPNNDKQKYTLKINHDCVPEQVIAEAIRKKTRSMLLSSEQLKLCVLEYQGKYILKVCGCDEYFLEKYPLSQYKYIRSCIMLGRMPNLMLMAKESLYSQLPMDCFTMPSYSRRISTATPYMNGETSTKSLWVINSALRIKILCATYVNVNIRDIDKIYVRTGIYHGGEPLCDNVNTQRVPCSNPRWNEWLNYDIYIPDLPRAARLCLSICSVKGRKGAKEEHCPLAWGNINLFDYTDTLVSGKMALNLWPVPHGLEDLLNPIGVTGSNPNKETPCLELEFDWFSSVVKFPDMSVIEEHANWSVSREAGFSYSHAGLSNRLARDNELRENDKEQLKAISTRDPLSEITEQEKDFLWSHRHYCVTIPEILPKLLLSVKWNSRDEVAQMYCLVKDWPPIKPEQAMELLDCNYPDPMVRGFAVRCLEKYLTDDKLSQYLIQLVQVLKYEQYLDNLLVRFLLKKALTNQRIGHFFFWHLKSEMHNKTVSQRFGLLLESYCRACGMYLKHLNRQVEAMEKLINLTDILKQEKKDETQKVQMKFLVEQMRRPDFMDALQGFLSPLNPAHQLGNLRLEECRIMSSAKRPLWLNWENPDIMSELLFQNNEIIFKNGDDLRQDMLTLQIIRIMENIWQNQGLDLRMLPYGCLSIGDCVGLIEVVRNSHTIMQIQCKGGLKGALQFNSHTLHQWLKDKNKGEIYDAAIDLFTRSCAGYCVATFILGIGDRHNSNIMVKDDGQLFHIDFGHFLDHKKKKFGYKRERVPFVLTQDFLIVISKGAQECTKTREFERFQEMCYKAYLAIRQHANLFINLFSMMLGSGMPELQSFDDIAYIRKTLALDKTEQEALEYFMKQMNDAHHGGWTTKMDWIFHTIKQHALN
Chain of PLK2 (Q9NYY3 whole entry): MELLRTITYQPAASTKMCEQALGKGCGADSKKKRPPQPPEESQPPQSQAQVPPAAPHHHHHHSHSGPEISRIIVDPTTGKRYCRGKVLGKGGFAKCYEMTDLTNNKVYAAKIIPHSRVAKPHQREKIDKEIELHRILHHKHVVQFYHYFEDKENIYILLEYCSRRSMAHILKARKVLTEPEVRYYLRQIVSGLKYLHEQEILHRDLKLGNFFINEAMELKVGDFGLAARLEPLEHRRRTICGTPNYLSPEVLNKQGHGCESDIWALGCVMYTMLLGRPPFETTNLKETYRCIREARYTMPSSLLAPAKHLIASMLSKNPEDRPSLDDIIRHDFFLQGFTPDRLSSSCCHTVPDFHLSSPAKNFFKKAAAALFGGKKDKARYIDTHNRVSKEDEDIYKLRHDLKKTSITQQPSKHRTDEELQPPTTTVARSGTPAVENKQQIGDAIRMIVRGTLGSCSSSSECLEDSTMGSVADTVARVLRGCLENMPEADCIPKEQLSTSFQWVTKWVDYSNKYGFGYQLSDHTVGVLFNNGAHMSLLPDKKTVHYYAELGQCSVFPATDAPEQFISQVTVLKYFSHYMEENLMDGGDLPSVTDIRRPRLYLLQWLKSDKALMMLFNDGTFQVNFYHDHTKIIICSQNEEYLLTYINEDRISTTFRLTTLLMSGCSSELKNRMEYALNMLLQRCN
Chain of ULK2 (Q8IYT8 whole entry): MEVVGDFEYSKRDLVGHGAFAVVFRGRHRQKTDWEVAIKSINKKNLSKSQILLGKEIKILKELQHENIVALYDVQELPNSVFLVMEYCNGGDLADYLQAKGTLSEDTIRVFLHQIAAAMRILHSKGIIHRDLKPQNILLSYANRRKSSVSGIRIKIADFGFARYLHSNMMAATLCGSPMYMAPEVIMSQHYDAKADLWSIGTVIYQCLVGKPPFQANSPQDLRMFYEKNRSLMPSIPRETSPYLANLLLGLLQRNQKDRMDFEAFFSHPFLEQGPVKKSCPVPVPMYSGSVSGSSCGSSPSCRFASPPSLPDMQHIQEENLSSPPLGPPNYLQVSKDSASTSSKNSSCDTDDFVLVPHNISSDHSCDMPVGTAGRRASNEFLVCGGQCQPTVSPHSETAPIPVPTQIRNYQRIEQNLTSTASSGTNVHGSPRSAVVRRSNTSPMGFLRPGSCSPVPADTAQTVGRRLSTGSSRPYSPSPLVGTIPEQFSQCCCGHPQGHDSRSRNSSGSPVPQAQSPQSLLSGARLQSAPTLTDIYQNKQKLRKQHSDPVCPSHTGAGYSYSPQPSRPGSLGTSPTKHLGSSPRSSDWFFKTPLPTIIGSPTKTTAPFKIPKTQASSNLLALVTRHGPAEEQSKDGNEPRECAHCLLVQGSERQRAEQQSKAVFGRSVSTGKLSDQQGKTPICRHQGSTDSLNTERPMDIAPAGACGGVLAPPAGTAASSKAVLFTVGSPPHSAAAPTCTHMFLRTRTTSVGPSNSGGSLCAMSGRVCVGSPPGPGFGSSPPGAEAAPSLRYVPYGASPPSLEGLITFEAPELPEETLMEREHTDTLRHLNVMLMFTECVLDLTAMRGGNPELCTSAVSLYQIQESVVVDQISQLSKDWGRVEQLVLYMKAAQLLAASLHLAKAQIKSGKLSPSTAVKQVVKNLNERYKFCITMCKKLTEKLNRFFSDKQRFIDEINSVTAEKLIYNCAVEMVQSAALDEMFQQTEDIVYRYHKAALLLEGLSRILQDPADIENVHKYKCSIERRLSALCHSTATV
Chain of CAMKK1 (Q8N5S9 whole entry): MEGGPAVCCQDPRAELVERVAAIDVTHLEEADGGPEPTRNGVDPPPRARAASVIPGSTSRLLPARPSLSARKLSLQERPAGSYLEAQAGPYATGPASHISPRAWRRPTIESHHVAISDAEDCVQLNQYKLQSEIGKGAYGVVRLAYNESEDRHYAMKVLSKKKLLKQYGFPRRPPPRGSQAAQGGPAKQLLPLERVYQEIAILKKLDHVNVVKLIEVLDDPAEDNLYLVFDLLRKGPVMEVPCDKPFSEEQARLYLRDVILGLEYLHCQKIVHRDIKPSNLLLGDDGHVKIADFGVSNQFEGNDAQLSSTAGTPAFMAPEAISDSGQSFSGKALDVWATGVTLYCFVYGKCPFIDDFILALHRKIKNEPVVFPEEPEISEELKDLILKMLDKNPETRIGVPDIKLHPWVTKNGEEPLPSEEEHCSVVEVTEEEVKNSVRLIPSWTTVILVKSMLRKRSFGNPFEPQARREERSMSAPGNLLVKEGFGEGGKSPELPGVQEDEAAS
Chain of PIK3C2B (O00750 whole entry): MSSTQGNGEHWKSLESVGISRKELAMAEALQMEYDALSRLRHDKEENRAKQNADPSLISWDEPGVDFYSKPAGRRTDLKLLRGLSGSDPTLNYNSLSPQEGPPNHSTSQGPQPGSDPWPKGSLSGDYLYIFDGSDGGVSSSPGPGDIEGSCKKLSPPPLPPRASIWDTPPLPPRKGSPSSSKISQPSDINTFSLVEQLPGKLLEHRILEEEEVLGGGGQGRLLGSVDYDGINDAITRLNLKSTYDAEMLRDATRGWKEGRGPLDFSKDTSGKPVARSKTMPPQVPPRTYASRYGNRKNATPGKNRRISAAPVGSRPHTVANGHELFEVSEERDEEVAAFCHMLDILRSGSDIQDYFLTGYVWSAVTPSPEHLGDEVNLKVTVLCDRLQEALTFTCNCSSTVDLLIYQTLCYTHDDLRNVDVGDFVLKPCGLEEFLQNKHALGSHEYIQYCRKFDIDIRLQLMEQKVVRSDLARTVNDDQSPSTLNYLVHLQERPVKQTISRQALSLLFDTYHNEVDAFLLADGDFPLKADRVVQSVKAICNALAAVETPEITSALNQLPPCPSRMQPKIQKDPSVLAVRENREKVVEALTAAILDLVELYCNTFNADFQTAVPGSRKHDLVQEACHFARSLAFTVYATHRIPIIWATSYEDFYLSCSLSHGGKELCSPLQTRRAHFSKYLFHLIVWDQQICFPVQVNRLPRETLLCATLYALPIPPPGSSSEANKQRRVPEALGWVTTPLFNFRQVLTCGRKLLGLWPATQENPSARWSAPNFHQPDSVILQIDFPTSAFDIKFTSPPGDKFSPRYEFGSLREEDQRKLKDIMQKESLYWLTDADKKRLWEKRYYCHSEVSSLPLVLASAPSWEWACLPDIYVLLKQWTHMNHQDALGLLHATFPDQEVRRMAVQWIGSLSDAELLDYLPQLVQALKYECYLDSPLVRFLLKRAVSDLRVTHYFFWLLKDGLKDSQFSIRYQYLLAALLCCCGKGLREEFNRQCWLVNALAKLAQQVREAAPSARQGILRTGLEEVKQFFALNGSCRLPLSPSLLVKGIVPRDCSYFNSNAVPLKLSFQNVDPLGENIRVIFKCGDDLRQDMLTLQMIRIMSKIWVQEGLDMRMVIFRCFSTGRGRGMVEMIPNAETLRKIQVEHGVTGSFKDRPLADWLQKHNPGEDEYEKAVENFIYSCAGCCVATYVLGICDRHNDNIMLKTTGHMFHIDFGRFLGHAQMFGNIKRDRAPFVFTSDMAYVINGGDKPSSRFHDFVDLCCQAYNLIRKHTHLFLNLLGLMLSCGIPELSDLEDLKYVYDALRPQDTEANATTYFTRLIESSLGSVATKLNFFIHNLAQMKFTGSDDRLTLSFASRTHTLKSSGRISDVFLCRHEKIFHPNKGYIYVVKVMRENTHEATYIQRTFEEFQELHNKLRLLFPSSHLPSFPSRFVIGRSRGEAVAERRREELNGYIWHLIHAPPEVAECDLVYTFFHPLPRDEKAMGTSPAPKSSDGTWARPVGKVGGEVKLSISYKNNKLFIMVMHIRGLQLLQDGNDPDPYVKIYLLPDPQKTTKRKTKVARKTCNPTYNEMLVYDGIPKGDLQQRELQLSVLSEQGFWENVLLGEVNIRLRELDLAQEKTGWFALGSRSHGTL

`CN1CCN(C(=O)c2ccc3cc(CCNc4ccnc5ccc(C#N)cc45)ccc3c2)CC1` [compound 6148, 4-((2-(6-(4-methylpiperazine-1-carbonyl)naphthalen-2-yl)ethyl)amino)quinoline-6-carbonitrile] was tested, and the remaining binding at 2 µM (CAMKK1) was 100%, the remaining binding at 2 µM (PIK3C2B) was 80% and the remaining binding at 2 µM (PIK3CA) was 90%. It also gave a remaining binding at 2 µM (PFTK1 (CDK14)) of 98%, a remaining binding at 2 µM (PIP5K2C (PIP4K2C)) of 84% and a remaining binding at 2 µM (BMX) of 100%. It also gave a remaining binding at 2 µM (CDK4-cyclinD1) of 83%, a remaining binding at 2 µM (MAP3K15) of 83% and a remaining binding at 2 µM (ULK2) of 71%. It also gave a remaining binding at 2 µM (EPHA5) of 97%, a remaining binding at 2 µM [1] of 81% and a remaining binding at 2 µM (TLK1) of 94%. The IC50 ([2]; 293/NFkB-luc, read-out: IC50 (293-NFKB-Luc)) was 55 nM, the IC50 ([2]; HEK293, parental 293-derived reporter cell line, read-out: HEK293 NFKB CDK8 Reporter IC50) was 65 nM and the remaining binding at 2 µM [3] was 83%. The remaining binding at 2 µM [4] was 73%, the remaining binding at 2 µM (RIOK3) was 85% and the remaining binding at 2 µM (JNK3 (MAPK10)) was 61%. The remaining binding at 2 µM (MEK1 (MAP2K1)) was 59%, the remaining binding at 2 µM (ULK1) was 66% and the remaining binding at 2 µM (CDK4-cyclinD3) was 80%. The remaining binding at 2 µM (MST1 (STK4)) was 95%, the remaining binding at 2 µM (NIM1 (MGC42105)) was 67% and the remaining binding at 2 µM (DYRK1B) was 83%. For the same compound, the remaining binding at 2 µM (KIT(V559D, V654A)) was 89%, the remaining binding at 2 µM (PLK2) was 80% and the remaining binding at 2 µM (STK35) was 100%. It also gave a remaining binding at 2 µM (ALK(C1156Y)) of 83%, a remaining binding at 2 µM (CAMK1D) of 80% and a remaining binding at 2 µM (KIT(A829P)) of 82%. It also gave a remaining binding at 2 µM (TIE1) of 85%, a remaining binding at 2 µM (ERBB4) of 95% and a remaining binding at 2 µM (WEE2) of 95%. For the same compound, the remaining binding at 2 µM (CLK2) was 93%, the remaining binding at 2 µM (NEK10) was 41% and the remaining binding at 2 µM (LRRK2(G2019S)) was 56%. The remaining binding at 2 µM (FLT3(N841I)) was 100%, the remaining binding at 2 µM (TRKA (NTRK1)) was 53% and the remaining binding at 2 µM (DDR1) was 100%. For the same compound, the remaining binding at 2 µM (SBK1) was 57%.
